Assay results reported in US12209081B2 (Katholieke Universiteit Leuven, priority 2020, dated 2025).

Target: mouse TRPM3α2 (mTRPM3) ion channel (Mus musculus (Mouse), UniProt J9SQF3)
Assay: TRPM3 ion channel driven Ca2+ uptake, Fluo-4 AM assay, mTRPM3alpha2 overexpressing flip-in HEK293 cells stimulated with pregnenolone sulfate
Type: cell-based
Conditions: PS 50 μM, cpds 200-299
Procedure, shortened: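 Read-out is Ca2+ influx via Fluo-4 AM fluorescence at 485/535 nm, taken right after seeding ~2000 cells/well onto compound with 50 μM PS. Inhibition computed from RFU between vehicle-stimulated and positive-control-inhibitor wells; cells were mTRPM3α2-overexpressing flip-in HEK293.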

Chain of mouse TRPM3α2 (mTRPM3) ion channel (J9SQF3 other isoform, or with tags, fused parts or gaps): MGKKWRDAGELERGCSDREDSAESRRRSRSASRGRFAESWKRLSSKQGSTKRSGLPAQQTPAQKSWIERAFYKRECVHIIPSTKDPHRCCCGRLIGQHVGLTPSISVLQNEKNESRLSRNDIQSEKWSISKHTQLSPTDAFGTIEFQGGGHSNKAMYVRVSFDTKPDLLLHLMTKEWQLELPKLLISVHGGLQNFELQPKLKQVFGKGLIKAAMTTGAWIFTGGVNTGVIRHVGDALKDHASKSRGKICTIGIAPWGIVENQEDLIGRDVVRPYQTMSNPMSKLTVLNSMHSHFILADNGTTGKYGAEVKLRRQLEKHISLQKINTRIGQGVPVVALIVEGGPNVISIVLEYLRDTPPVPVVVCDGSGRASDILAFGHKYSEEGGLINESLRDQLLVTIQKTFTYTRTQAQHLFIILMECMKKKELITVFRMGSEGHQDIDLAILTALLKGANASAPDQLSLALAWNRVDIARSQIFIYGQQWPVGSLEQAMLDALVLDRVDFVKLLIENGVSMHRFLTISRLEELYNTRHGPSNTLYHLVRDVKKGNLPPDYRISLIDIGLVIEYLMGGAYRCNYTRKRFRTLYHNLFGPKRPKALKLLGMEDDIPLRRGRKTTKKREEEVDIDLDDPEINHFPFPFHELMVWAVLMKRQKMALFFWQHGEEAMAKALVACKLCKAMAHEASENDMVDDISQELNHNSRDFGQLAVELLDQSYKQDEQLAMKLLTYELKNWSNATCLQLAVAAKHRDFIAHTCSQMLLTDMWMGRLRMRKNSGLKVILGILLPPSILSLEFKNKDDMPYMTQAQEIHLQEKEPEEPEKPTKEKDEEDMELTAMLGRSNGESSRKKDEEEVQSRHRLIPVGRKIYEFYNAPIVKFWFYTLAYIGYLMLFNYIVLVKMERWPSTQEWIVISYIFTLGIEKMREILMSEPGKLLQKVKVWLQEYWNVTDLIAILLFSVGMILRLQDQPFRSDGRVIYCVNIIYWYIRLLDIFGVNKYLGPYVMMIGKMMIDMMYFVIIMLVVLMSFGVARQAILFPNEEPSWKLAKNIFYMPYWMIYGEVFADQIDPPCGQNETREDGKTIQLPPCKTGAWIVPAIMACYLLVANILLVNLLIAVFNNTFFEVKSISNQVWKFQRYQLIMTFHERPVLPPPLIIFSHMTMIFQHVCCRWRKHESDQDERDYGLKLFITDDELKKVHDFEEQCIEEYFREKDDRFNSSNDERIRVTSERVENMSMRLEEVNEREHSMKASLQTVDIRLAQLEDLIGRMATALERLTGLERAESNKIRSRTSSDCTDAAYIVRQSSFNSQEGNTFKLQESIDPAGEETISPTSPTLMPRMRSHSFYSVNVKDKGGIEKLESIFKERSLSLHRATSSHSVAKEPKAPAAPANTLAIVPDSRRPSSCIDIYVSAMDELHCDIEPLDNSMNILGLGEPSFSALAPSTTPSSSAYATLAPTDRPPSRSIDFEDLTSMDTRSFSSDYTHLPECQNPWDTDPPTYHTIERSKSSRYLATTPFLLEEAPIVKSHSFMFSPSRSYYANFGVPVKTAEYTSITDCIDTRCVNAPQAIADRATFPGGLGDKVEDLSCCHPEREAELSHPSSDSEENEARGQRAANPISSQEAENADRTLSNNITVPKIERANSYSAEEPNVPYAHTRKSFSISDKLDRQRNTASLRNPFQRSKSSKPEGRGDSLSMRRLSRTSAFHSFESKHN

IC50, < 1 µM:
Cc1cc(COc2ccc3oc(C)c(C(=O)N[C@@H](CO)C(N)=O)c3c2)no1 [compound 289, (S)-N-(1-amino-3-hydroxy-1-oxopropan-2-yl)-2-methyl-5-((5-methylisoxazol-3-yl)methoxy)benzofuran-3-carboxamide]
Cc1oc2ccc(OCc3ncsc3C)cc2c1C(=O)N[C@@H](CO)C(N)=O [compound 290, (S)-N-(1-amino-3-hydroxy-1-oxopropan-2-yl)-2-methyl-5-((5-methylthiazol-4-yl)methoxy)benzofuran-3-carboxamide]
Cc1ccc(COc2ccc3oc(C)c(C(=O)N[C@@H](CO)C(N)=O)c3c2)cn1 [compound 291, (S)-N-(1-amino-3-hydroxy-1-oxopropan-2-yl)-2-methyl-5-((6-methylpyridin-3-yl)methoxy)benzofuran-3-carboxamide]
Cc1oc2ccc(OCC3COC3)cc2c1C(=O)N[C@@H](CO)C(N)=O [compound 292, (S)-N-(1-amino-3-hydroxy-1-oxopropan-2-yl)-2-methyl-5-(oxetan-3-ylmethoxy)benzofuran-3-carboxamide]
Cc1oc2ccc(OCc3cccnn3)cc2c1C(=O)N[C@@H](CO)C(N)=O [compound 293, (S)-N-(1-amino-3-hydroxy-1-oxopropan-2-yl)-2-methyl-5-(pyridazin-3-ylmethoxy)benzofuran-3-carboxamide]
Cc1oc2ccc(OCc3ccncn3)cc2c1C(=O)N[C@@H](CO)C(N)=O [compound 294, (S)-N-(1-amino-3-hydroxy-1-oxopropan-2-yl)-2-methyl-5-(pyrimidin-4-ylmethoxy)benzofuran-3-carboxamide]
Cc1oc2ccc(OCc3ccnn3CC(F)F)cc2c1C(=O)N[C@@H](CO)C(N)=O [compound 295, (S)-N-(1-amino-3-hydroxy-1-oxopropan-2-yl)-5-((1-(2,2-difluoroethyl)-1H-pyrazol-5-yl)methoxy)-2-methylbenzofuran-3-carboxamide]
Cc1oc2ccc(OCc3cccnc3OC(F)F)cc2c1C(=O)N[C@@H](CO)C(N)=O [compound 296, (S)-N-(1-amino-3-hydroxy-1-oxopropan-2-yl)-5-((2-(difluoromethoxy)pyridin-3-yl)methoxy)-2-methylbenzofuran-3-carboxamide]
Cc1oc2ccc(OCc3cccnc3N(C)C)cc2c1C(=O)N[C@@H](CO)C(N)=O [compound 297, (S)-N-(1-amino-3-hydroxy-1-oxopropan-2-yl)-5-((2-(dimethylamino)pyridin-3-yl)methoxy)-2-methylbenzofuran-3-carboxamide]
Cc1nc(C)c(COc2ccc3oc(C)c(C(=O)N[C@@H](CO)C(N)=O)c3c2)s1 [compound 298, (S)-N-(1-amino-3-hydroxy-1-oxopropan-2-yl)-5-((2,4-dimethylthiazol-5-yl)methoxy)-2-methylbenzofuran-3-carboxamide]
Cc1nc(COc2ccc3oc(C)c(C(=O)N[C@@H](CO)C(N)=O)c3c2)c(C)s1 [compound 299, (S)-N-(1-amino-3-hydroxy-1-oxopropan-2-yl)-5-((2,5-dimethylthiazol-4-yl)methoxy)-2-methylbenzofuran-3-carboxamide]

Same assay, conditions: PS 50 μM, cpds 300-399

IC50, < 1 µM:
Cc1oc2ccc(OCc3cccnc3N)cc2c1C(=O)N[C@@H](CO)C(N)=O [compound 300, (S)-N-(1-amino-3-hydroxy-1-oxopropan-2-yl)-5-((2-aminopyridin-3-yl)methoxy)-2-methylbenzofuran-3-carboxamide]
Cc1oc2ccc(OCc3ncccc3C(F)F)cc2c1C(=O)N[C@@H](CO)C(N)=O [compound 301, (S)-N-(1-amino-3-hydroxy-1-oxopropan-2-yl)-5-((3-(difluoromethyl)pyridin-2-yl)methoxy)-2-methylbenzofuran-3-carboxamide]
